Results on one molecule are retold here after ChEMBL document CHEMBL5131445, “Optimization of a novel piperazinone series as potent selective peripheral covalent BTK inhibitors” (Bioorg Med Chem Lett, 2022).

For the experiment, the target named is T1, Tyrosine-protein kinase JAK3 (Homo sapiens, UniProt P52333).
T1 sequence (P52333 whole entry): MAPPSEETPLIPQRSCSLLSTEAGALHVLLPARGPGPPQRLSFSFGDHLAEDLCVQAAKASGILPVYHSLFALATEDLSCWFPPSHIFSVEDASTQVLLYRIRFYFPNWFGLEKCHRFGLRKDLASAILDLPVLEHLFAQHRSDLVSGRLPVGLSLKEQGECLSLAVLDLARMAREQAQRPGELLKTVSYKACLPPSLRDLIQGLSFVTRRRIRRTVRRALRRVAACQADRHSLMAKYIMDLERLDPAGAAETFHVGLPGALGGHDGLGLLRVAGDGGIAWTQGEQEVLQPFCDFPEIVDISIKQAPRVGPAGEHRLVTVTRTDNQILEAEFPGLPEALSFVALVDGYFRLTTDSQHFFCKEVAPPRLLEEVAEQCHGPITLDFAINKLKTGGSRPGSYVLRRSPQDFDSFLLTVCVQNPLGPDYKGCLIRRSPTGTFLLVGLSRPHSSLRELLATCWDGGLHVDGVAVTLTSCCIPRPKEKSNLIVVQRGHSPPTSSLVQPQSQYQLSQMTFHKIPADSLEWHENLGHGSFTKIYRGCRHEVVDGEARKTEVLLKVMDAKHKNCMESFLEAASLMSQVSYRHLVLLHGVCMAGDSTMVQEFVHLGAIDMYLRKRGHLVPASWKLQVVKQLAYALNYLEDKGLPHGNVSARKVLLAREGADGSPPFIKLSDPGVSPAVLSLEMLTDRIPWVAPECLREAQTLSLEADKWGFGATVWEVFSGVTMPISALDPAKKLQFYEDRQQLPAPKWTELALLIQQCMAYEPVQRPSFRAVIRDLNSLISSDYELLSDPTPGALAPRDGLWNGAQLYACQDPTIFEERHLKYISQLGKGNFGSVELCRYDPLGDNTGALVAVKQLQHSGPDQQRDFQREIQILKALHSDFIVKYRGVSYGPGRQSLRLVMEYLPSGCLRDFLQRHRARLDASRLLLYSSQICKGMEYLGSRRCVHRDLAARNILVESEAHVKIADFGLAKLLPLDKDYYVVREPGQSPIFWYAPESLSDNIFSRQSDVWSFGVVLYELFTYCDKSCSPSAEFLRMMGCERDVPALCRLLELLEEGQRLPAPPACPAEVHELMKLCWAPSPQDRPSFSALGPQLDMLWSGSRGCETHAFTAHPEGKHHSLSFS
As to the kind of experiment: Binding affinity to JAK3 (unknown origin) assessed as dissociation constant by KINOMEscan analysis.

As usually defined, the Kd is the concentration at which binding is half-saturated. As to `C=CC(=O)N(C)CCOc1c(N)ncnc1-c1ccc(CN2CCN(CC(C)C)CC2=O)c(C)c1`, the Kd amounted to 2.9 µM.
